Test results published in paper PMC4936777 (ACS chemical neuroscience, 2015).
In brackets after ≈: the same amount, converted by molar mass.

Tests used:
α1β2γ2L GABAA receptor = α1β2γ2L GABAA receptor (Homo sapiens, UniProt P14867+P18507+P47870); experiment: Two electrode voltage clamp of GABAA receptors expressed in X. laevis oocytes; type: cell-based; details: for modulation of GABA EC10 current: coexposure with GABA EC10, −80 mV; for direct activation of the receptor in the absence of GABA: fropofol at 5 and 50 μM
[1] = molecular target: T1, horse spleen apoferritin (HSAF) (Equus caballus, UniProt P02791); experiment: [3H]AziPm photolabel competition with HSAF; type: binding; details: One μM ligand
T1 sequence (P02791 2-175 limits assumed): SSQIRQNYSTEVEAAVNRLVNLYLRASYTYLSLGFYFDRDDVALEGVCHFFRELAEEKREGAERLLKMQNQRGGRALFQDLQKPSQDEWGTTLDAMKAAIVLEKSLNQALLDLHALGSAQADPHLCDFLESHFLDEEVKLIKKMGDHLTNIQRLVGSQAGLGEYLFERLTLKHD

[2] = molecular target: T2, human serum albumin (hSA) (Homo sapiens, UniProt P02768); experiment: biochemical
[3] = tested on: isolated, intact rat trabecular muscle; experiment: Force development of isolated intact trabecular muscle; details: 100 μM
[4] = molecular target: T2, human serum albumin (hSA); details: single site binding model
[5] = molecular target: human serum albumin (hSA) domain III (Homo sapiens, UniProt P02768); experiment: in vitro
[6] = tested on: albino Xenopus laevis tadpoles; type: in vivo
C57/Bl6 mice = experiment: Pharmacological activity and EEG in mice after IV bolus; type: in vivo, mouse
[7] = molecular target: T1, horse spleen apoferritin (HSAF); experiment: Isothermal titration calorimetry with HSAF; type: binding
physchem = type: physicochemical; details: water, thermodynamic from solid
in vivo = details: C57/B6, mouse, iv
[8] = molecular target: T1, horse spleen apoferritin (HSAF); experiment: 1-aminoanthracene; type: binding

NCCCC(=O)O [GABA, γ-Aminobutyric acid, reference compound] showed a Hill coefficient (α1β2γ2L GABAA receptor; GABA concentration–response, mean ± SEM) of 0.87 ± 0.04.

With CC(C)c1cccc(C(C)C)c1F [fropofol, 2-fluoro-1,3-diisopropylbenzene] the “effect on propofol positive modulation of the GABAA receptor” value (α1β2γ2L GABAA receptor; 50 μM fropofol, with GABA EC10 and propofol) was “no significant change”, the “modulation of GABA EC10 current” value (α1β2γ2L GABAA receptor) was “no significant modulation or inhibition” and the “direct activation of the receptor in the absence of GABA” value (α1β2γ2L GABAA receptor) was “no significant direct activation”. For the same compound, the “effect on 5 μM propofol potentiation of GABAA receptor currents” value (α1β2γ2L GABAA receptor; saturating concentrations of fropofol, with GABA EC10) was “no significant alteration”, the “reduction in [3H]AziPm binding to HSAF” value [1] was 61% and the Kd [2] was 91 µM. For the same compound, the “depression (reduction) of maximum force development” value ([3]; LBN/F1, rat) was 35 ± 1%, the “stoichiometry n for hSA (ITC)” value [4] was 1.3 ± 0.9 and the inhibition at 75 µM [5] was 37 ± 12%. For the same compound, the “loss-of-mobility endpoints in tadpoles” value ([6]; 3–100 μM, 60 and 90 min exposure) was “none of the X. laevis tadpoles within any dose group exhibited the standard loss-of-mobility endpoints”, the “time to resume normal swimming behaviors after exchange for fresh pond water” value ([6]; albino, Xenopus laevis, in vivo) was 10 to 15 min and the “observable effects in mice” value (C57/Bl6 mice; 96 mg/kg, bolus tail vein injection, 10% lipid emulsion) was “no observable effects”. The “toxicity in mice in the following days postinjection” value (C57/Bl6 mice; 180 mg/kg IV) was “no toxicity was observed”, the “time to resume normal activity in mice” value (C57/Bl6 mice; C57/B6, mouse, in vivo) was 2 to 3 h and the “EEG recording in mice” value (C57/Bl6 mice; mouse, in vivo) was “Phenotypical seizure activity”. For the same compound, the “EEG recordings and physical observation in mice” value (C57/Bl6 mice; mouse, in vivo) was “generalized tonic-clonic seizure-like activity”, the “loss of righting reflex in mice” value (C57/Bl6 mice; up to the highest dose) was “not with even the highest dose” and the Kd [7] was 1.7 µM. The “fold increase in affinity for HSAF relative to propofol (ITC)” value ([7]; relative to propofol) was 4- to 5 fold, the solubility at 24 h (physchem) was 116 ± 4.4 µM (≈ 20.9 µg/mL) and the concentration at 45 s (in vivo; 96 mg/kg) was 38000 ng/g. The concentration at 10 min (in vivo; 200 mg/kg) was 51000 ng/g and the Kd [8] was 0.7 µM.

In the case of CC(C)c1cccc(C(C)C)c1O [propofol, 2,6-diisopropylphenol, reference compound], the “modulation of GABA EC10 current” value (α1β2γ2L GABAA receptor) is reported as “concentration-dependent increase in current up to 80 μM”, the “direct activation of the receptor in the absence of GABA” value (α1β2γ2L GABAA receptor) is reported as “minor direct activation” and the “reduction in [3H]AziPm binding to HSAF” value [1] is reported as 31%. For the same compound, the “depression (reduction) of maximum force development” value ([3]; room temperature) was 49 ± 4%, the “loss of righting reflex in mice” value (C57/Bl6 mice; 20 mg/kg) was “produced” and the Kd [8] was 10 µM.
